Results reported in patent US20210346288A1, “PHARMACEUTICAL FORMULATION CONTAINING ACTIVE METABOLITES OF REMDESIVIR FOR INHALATION” (priority 2020, published 2021).

Key:
[1] = Influence of pH and pH adjuster on stability of RV-MP solution (HPLC impurities, 60° C./75% RH); assay type: physicochemical
Experimental: (§1) Remdesivir monophosphate disodium salt is the salt of nucleoside monophosphate. The stability of remdesivir monophosphate disodium salt (referred to as RV-MP) is highly dependent on the pH. Four samples were prepared, having pH 3.0, 4.0, 5.0, 6.0. 23 ml of purified water was adjusted to the target pH with hydrochloric acid. RV-MP according to the amounts provided in table 5 was added to the solution, and the resulting mixture was sonicated until completely dissolved. The resulting mixture was adjusted to the target pH with hydrochloric acid. Finally, purified water was added to provide a final weight of 25.0 g.
(§2) Impurities Detection Method: HPLC Detection Method • Column: YMC-triart C 18, 4.6*150 mm, S-5 μm, 12 nm; • Flow: 0.8 ml/min • Injection volume: […], • Column temperature: 40° C. • A: Weigh 2.7 g of sodium dihydrogen phosphate, add 1 L of purified water, stir to dissolve, and filter to obtain. • B: Methanol
as §1, with “The” for “Remdesivir monophosphate disodium salt is the salt of nucleoside monophosphate. The”, “Five” for “Four”, “3.2, 3.5, 3.8, 4.0.” for “4.0, 5.0, 6.0.”, “citric” for “hydrochloric”, “Table 10” for “table 5”
as §1, with “The” for “Remdesivir monophosphate disodium salt is the salt of nucleoside monophosphate. The”, “Five” for “Four”, “3.2, 3.5, 3.8, 4.0.” for “4.0, 5.0, 6.0.”, “HCl.” for “hydrochloric acid.”, “Table 16” for “table 5”, “Then the” for “The”

[2] = Strong degradation test under light conditions (HPLC impurities); assay type: physicochemical
Experimental: as §2
Sample 15: 60 mg RV_MP dissolved in 100 ml purified water.
The sample 15 was placed in light conditions, and the placement time was 2 hours, 4 hours, 6 hours, 24 hours, 48 hours, 72 hours, and the impurity detection method in Example 5 was used to detect the samples.
The impurity detection method of the present invention is the same as the impurity detection method in Example 5.

remdesivir monophosphate disodium salt [RV-MP]
Stability of RV-MP solution at 60° C. ([1]; 60° C.): unstable | Stability of RV-MP formulations ([1]; adjusting pH using HCl): stable at pH 3.0-4.0 | pH of highest stability ([1]; adjusting pH using HCl, pH 3.0-6.0 tested): 3.0 | Stability of resulting solution ([1]; using HCl to adjust the pH, compared with citric acid): more stable | Stability of resulting solution ([1]; using citric acid to adjust the pH, especially at pH3.0): unstable | Stability of RV-MP solution under light condition [2]: unstable
